“Also recorded” adds a separate entry of the source. Where two headings read alike, the source gives them in different places.
Legend:
mouse P2X4 [1] = molecular target: T1, mouse P2X4 (Mus musculus, UniProt Q9JJX6); assay: Intracellular Ca2+ assay (Fura-2, FlexStation 3), agonist responses in 1321N1 cells stably expressing mouse P2X4; type: cell-based; conditions: for Emax: 1321-N1, read-out: Efficacy Mouse (maximal response to ligand as a percentage of maximal response to ATP); for EC50: 1321N1 cells expressing mouse P2X4, peak Ca2+ response
T1 construct: expressed in transfected cells
T1 sequence (Q9JJX6 1-388): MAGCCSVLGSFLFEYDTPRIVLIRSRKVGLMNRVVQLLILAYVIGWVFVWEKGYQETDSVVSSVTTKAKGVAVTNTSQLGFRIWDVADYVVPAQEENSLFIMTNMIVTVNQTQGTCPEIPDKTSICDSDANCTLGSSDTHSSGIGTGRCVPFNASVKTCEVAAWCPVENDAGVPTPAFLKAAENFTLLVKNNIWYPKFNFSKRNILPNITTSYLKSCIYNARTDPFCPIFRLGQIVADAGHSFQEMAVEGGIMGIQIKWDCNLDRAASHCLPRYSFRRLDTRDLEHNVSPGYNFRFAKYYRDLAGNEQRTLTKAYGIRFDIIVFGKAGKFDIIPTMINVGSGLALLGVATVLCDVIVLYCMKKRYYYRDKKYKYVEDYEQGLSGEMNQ

human P2X4 [2] = molecular target: T2, human P2X4 (Homo sapiens, UniProt Q99571); assay: Intracellular Ca2+ assay (Fura-2, FlexStation 3), agonist responses in 1321N1 cells stably expressing human P2X4; type: cell-based; conditions: for Emax: 1321-N1, read-out: Efficacy Human (maximal response to ligand as a percentage of maximal response to ATP)
T2 construct: expressed in transfected cells
T2 sequence (Q99571 1-388): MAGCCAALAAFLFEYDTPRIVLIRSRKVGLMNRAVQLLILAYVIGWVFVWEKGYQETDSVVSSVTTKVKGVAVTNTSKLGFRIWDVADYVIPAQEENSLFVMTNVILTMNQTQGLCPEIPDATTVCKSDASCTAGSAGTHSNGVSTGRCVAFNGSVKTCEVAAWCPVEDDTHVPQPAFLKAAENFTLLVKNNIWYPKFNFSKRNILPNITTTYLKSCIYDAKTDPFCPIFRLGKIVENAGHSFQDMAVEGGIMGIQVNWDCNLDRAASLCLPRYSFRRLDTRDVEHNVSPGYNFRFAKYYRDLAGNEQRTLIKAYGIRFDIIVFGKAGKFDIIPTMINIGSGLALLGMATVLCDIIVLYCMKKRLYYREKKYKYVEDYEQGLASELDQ

human P2X4 [3] = molecular target: T2, human P2X4; assay: Intracellular Ca2+ assay, antagonists against Ca2+ responses evoked by EC80 ATP (1.5 µM) in 1321N1 cells expressing human P2X4; type: cell-based
mouse P2X4 [4] = molecular target: T1, mouse P2X4; assay: Intracellular Ca2+ assay, antagonists against Ca2+ responses evoked by EC80 ATP (1.5 µM) in 1321N1 cells expressing mouse P2X4; type: cell-based
rat P2X4 = conditions: cited from earlier work
human P2X4 [5] = molecular target: T2, human P2X4; conditions: cited from earlier work
mouse P2X4 [6] = molecular target: T1, mouse P2X4; conditions: cited from earlier work
[7] = 10 µM antagonist, vs 1.5 µM ATP
[8] = 30 µM antagonist, vs 1.5 µM ATP
[9] = 1321N1 cells expressing human P2X4, peak Ca2+ response, read-out: EC50 Human
[10] = 20 µM antagonist, vs 1.5 µM ATP
[11] = 100 µM antagonist, vs 1.5 µM ATP

Nc1ccn([C@@H]2O[C@H](COP(=O)(O)OP(=O)(O)OP(=O)(O)O)[C@@H](O)[C@H]2O)c(=O)n1 [CTP, Cytidine 5′-triphosphate]
Emax (mouse P2X4 [1]): 89 ± 5% | Agonist action at mouse P2X4 (in words) (mouse P2X4 [1]; mouse P2X4): full agonist | Emax (human P2X4 [2]): 67 ± 6% | Agonist action at human P2X4 (in words) (human P2X4 [2]; human P2X4): partial agonist

CC(C)c1cc(Br)c(NC(=O)Nc2cccnc2)c(Br)c1 [BX-430, 1-(2,6-Dibromo-4-isopropyl-phenyl)-3-(3-pyridyl)urea]
% inhibition Human (human P2X4 [3]; [7]): 96 ± 3% (10 µM) | Antagonist action at human P2X4 (in words) (human P2X4 [3]; vs 1.5 µM ATP): abolished receptor activity | % inhibition Mouse (mouse P2X4 [4]; [7]): 0 ± 3% (10 µM) | Antagonist action at mouse P2X4 (in words) (mouse P2X4 [4]; up to 100 µM): insensitive | Antagonist action at mouse P2X4 (in words) (mouse P2X4 [4]; vs 1.5 µM ATP): not antagonised

O=C1CN=C(c2cccc(Br)c2)c2oc3ccccc3c2N1 [5-BDBD, 5-(3-Bromophenyl)-1,3-dihydro-2H-benzofuro[3,2-e]-1,4-diazepin-2-one]
% inhibition Human (human P2X4 [3]; [8]): 97 ± 3% (30 µM) | Antagonist action at human P2X4 (in words) (human P2X4 [3]; vs 1.5 µM ATP): completely inhibit | % inhibition Mouse (mouse P2X4 [4]; [8]): 10 ± 8% (30 µM) | Antagonist action at mouse P2X4 (in words) (mouse P2X4 [4]; up to 100 µM): insensitive | Antagonist action at mouse P2X4 (in words) (mouse P2X4 [4]; vs 1.5 µM ATP): not antagonised; also recorded: not an antagonist | Antagonist action at rat P2X4 (literature) (rat P2X4; ref 37): sensitivity

Nc1ncnc2c1ncn2[C@@H]1O[C@H](COP(=O)(O)OP(=O)(O)OP(=O)(O)O)[C@@H](O)[C@H]1O [ATP, adenosine 5′-triphosphate]
EC50 (mouse P2X4 [1]): 0.565 ± 0.085 µM | EC50 (human P2X4 [2]; [9]): 0.747 ± 0.18 µM | EC80 (human P2X4 [2]; human P2X4): 1.5 ± 0.3 µM

Nc1ncnc2c1ncn2C1OC(COP(=O)(O)CP(=O)(O)OP(=O)(O)O)C(O)C1O (stereo not drawn) [α,β-meATP, α,β-Methyleneadenosine 5′-triphosphate]
Emax (mouse P2X4 [1]): 5 ± 2% | Agonist action at mouse P2X4 (in words) (mouse P2X4 [1]; mouse P2X4): no significant effect | EC50 (human P2X4 [2]): 7 ± 0.7 µM | Emax (human P2X4 [2]): 15 ± 2% | Agonist action at human P2X4 (in words) (human P2X4 [2]; human P2X4): can be activated; also recorded: weak partial agonist

NS(=O)(=O)c1cc(NC(=O)Cc2ccccc2)ccc1Oc1cccc(Cl)c1 [BAY-1797, N-[4-(3-Chlorophenoxy)-3-sulfamoylphenyl]-2-phenylacetamide]
% inhibition Mouse (mouse P2X4 [4]; [7]): 99 ± 2% (10 µM)

Cc1ccc(C(=O)Nc2ccc(S(=O)(=O)O)c3cc(S(=O)(=O)O)cc(S(=O)(=O)O)c23)cc1NC(=O)c1cccc(NC(=O)Nc2cccc(C(=O)Nc3cc(C(=O)Nc4ccc(S(=O)(=O)O)c5cc(S(=O)(=O)O)cc(S(=O)(=O)O)c45)ccc3C)c2)c1 [suramin, 8,8′-{Carbonylbis[imino-3,1-phenylenecarbonylimino(4-methyl-3,1-phenylene)carbonylimino]}di(1,3,5-naphthalenetrisulfonic acid)]
Antagonist action at human P2X4 (in words) (human P2X4 [3]; up to 100 µM): completely insensitive | Antagonist action at mouse P2X4 (in words) (mouse P2X4 [4]; up to 100 µM): completely insensitive

Nc1ncnc2c1ncn2[C@@H]1O[C@H](COP(=O)(O)OP(=O)(O)OP(=O)(O)OP(=O)(O)OC[C@H]2O[C@@H](n3cnc4c(N)ncnc43)[C@H](O)[C@@H]2O)[C@@H](O)[C@H]1O [Ap4A, Diadenosine tetraphosphate]
Agonist action at mouse P2X4 (in words) (mouse P2X4 [1]; mouse P2X4): not an agonist | Agonist action at mouse P2X4 (in words) (mouse P2X4 [1]; tested up to 1 mM): did not activate | Agonist action at human P2X4 (literature) (human P2X4 [5]; ref 35, ref 17): activation of human P2X4 by Ap4A at nanomolar concentrations | Agonist action at mouse P2X4 (literature) (mouse P2X4 [6]; ref 17): activates mouse P2X4 at low micromolar concentrations | Agonist action at mouse P2X4 (literature) (mouse P2X4 [6]; ref 35): insensitive | Agonist potency at rat P2X4 (literature) (rat P2X4; ref 36): equipotent with ATP | Agonist action at human P2X4 (in words) (human P2X4 [2]; tested up to 1 mM): did not activate

Nc1ncnc2c1ncn2[C@@H]1O[C@H](CO[P@](=O)(O)O[P@](=O)(O)O[P@@](=O)(O)S)[C@@H](O)[C@H]1O [ATPγS, Adenosine-5′-O-(3-thio-triphosphate)]
Emax (mouse P2X4 [1]): 45 ± 4% | EC50 (mouse P2X4 [1]): 18 ± 1 µM | Agonist action at mouse P2X4 (in words) (mouse P2X4 [1]; mouse P2X4): partial agonist | Agonist action at human P2X4 (literature) (human P2X4 [5]; ref 33): partial agonism | Emax (human P2X4 [2]): 9 ± 3% | Agonist action at human P2X4 (in words) (human P2X4 [2]; human P2X4): did not activate; also recorded: not activated | Agonist action at human P2X4 (in words) (human P2X4 [2]; up to 300 µM): does not activate

Cc1ccc(S(=O)(=O)N2c3ccccc3Oc3ccccc32)cc1 [PSB-12062, N-(p-methylphenylsulfonyl)phenoxazine]
% inhibition Human (human P2X4 [3]; [10]): 99 ± 4% (20 µM) | Antagonist action at human P2X4 (in words) (human P2X4 [3]; vs 1.5 µM ATP): abolished activity | % inhibition Mouse (mouse P2X4 [4]; [10]): 59 ± 7% (20 µM) | IC50 (mouse P2X4 [4]; read-out: IC50 Mouse): 3 ± 2 µM

C#CCNP(=O)(O)OP(=O)(O)OP(=O)(O)OCC1OC(n2cnc3c(N)ncnc32)C(O)C1O (stereo not drawn) [γ-[(Propargyl)-imido]-ATP, Adenosine-5′-[γ-(propargyl)-imido]triphosphate]
Emax (mouse P2X4 [1]): 90 ± 11% | EC50 (mouse P2X4 [1]): 20 ± 2 µM | Agonist action at mouse P2X4 (in words) (mouse P2X4 [1]; mouse P2X4): full agonist | Emax (human P2X4 [2]): 85 ± 5% | EC50 (human P2X4 [2]; [9]): 20 ± 2 µM | Agonist action at human P2X4 (in words) (human P2X4 [2]; human P2X4): partial agonism

Nc1ncnc2c1ncn2C1OC(COP(=O)(O)OP(=O)(O)OP(=O)(O)O)C(OC(=O)c2ccc(C(=O)c3ccccc3)cc2)C1O (stereo not drawn) [BzATP, 2′(3′)-O-(4-Benzoylbenzoyl)adenosine 5′-triphosphate]
Emax (mouse P2X4 [1]): 27 ± 2% | EC50 (mouse P2X4 [1]): 24 ± 16 µM | Agonist action at mouse P2X4 (in words) (mouse P2X4 [1]; mouse P2X4): partial agonist | Emax (human P2X4 [2]): 35 ± 4% | EC50 (human P2X4 [2]; [9]): 11 ± 2 µM | Agonist action at human P2X4 (in words) (human P2X4 [2]; human P2X4): partial agonist

Cc1nc(/N=N/c2ccc(S(=O)(=O)O)cc2S(=O)(=O)O)c(COP(=O)(O)O)c(C=O)c1O [PPADS, Pyridoxalphosphate-6-azophenyl-2′,4′-disulfonic acid]
% inhibition Human (human P2X4 [3]; [11]): 98 ± 3% (100 µM) | Antagonist action at human P2X4 (literature) (human P2X4 [5]; ref 16-18): inhibit the human P2X4 receptor fully | % inhibition Mouse (mouse P2X4 [4]; [11]): 87 ± 16%(100 µM)

CSc1nc(N)c2ncn([C@@H]3O[C@H](COP(=O)(O)OP(=O)(O)OP(=O)(O)O)[C@@H](O)[C@H]3O)c2n1 [2-MeSATP, 2-(Methylthio)adenosine 5′-triphosphate]
Emax (mouse P2X4 [1]): 65 ± 2% | EC50 (mouse P2X4 [1]): 8 ± 2 µM | Agonist action at mouse P2X4 (in words) (mouse P2X4 [1]; mouse P2X4): partial agonist | Emax (human P2X4 [2]): 57 ± 6% | EC50 (human P2X4 [2]; [9]): 2 ± 0.2 µM | Agonist action at human P2X4 (in words) (human P2X4 [2]; human P2X4): partial agonist

Nc1ncnc2c1ncn2[C@@H]1O[C@H](COP(=O)(O)OP(=O)(O)OP(=O)(O)O)[C@H]2OC3(O[C@H]21)C([N+](=O)[O-])=CC(=[N+]([O-])[O-])C=C3[N+](=O)[O-] (stereo partly drawn) [TNP-ATP, 2′,3′-O-(2,4,6-Trinitrophenyl)-ATP]
Antagonist action at human P2X4 (in words) (human P2X4 [3]): completely inhibited | % inhibition Human (human P2X4 [3]; [11]): 94 ± 1% (100 µM) | IC50 (mouse P2X4 [4]): 93 ± 4 µM | % inhibition Mouse (mouse P2X4 [4]; [11]): 43 ± 7% (100 µM)

Source: publication PMC11554605, “Pharmacological differences between human and mouse P2X4 receptor explored using old and new tools” (Purinergic Signalling, 2024)
